Test results reported in PubChem BioAssay AID1963984 (Molecular Pharmacology Branch, DTP, NCI, 2024).
pIC50: −log10 of the molar value.

System: 233499-124-R-J3-PDC spheroids with HUVEC/MSC, viability
Experiment: Anticancer human tumor 233499-124-R-J3-PDC patient-derived colon adenocarcinoma cell line growth inhibition [PI3K]
Conditions: for pIC50: curve of first compound; for viability, T/C: stronger effect = lower value; active means viability on the fitted dose curve at most 10% of control; inactive means the rest
How it was run: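 Tumor cells were combined with HUVEC and MSCs into spheroids, then dosed with PI3K-inhibitor combinations over half-log ranges capped near clinical Cmax or 10 microM.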

[1] = second compound 0.0316 µM, first compound 0.000316 µM
[2] = second compound 0.0316 µM, first compound 0.001 µM
[3] = second compound 0.0316 µM, first compound 0.00316 µM
[4] = second compound 0.0316 µM, first compound 0.01 µM
[5] = second compound 0.0316 µM, first compound 0.0316 µM
[6] = second compound 0.0316 µM, first compound 0.1 µM
[7] = second compound 0.1 µM, first compound 0.000316 µM
[8] = second compound 0.1 µM, first compound 0.001 µM
[9] = second compound 0.1 µM, first compound 0.00316 µM
[10] = second compound 0.1 µM, first compound 0.01 µM
[11] = second compound 0.1 µM, first compound 0.0316 µM
[12] = second compound 0.1 µM, first compound 0.1 µM
[13] = second compound 0.316 µM, first compound 0.000316 µM
[14] = second compound 0.316 µM, first compound 0.001 µM
[15] = second compound 0.316 µM, first compound 0.00316 µM
[16] = second compound 0.316 µM, first compound 0.01 µM
[17] = second compound 0.316 µM, first compound 0.0316 µM
[18] = second compound 0.316 µM, first compound 0.1 µM
[19] = second compound 1 µM, first compound 0.000316 µM
[20] = second compound 1 µM, first compound 0.001 µM
[21] = second compound 1 µM, first compound 0.00316 µM
[22] = second compound 1 µM, first compound 0.01 µM
[23] = second compound 1 µM, first compound 0.0316 µM
[24] = second compound 1 µM, first compound 0.1 µM
[25] = second compound 3.16 µM, first compound 0.000316 µM
[26] = second compound 3.16 µM, first compound 0.001 µM
[27] = second compound 3.16 µM, first compound 0.00316 µM
[28] = second compound 3.16 µM, first compound 0.01 µM
[29] = second compound 3.16 µM, first compound 0.0316 µM
[30] = second compound 3.16 µM, first compound 0.1 µM
[31] = second compound 10 µM, first compound 0.000316 µM
[32] = second compound 10 µM, first compound 0.001 µM
[33] = second compound 10 µM, first compound 0.00316 µM
[34] = second compound 10 µM, first compound 0.01 µM
[35] = second compound 10 µM, first compound 0.0316 µM
[36] = second compound 10 µM, first compound 0.1 µM
[37] = second compound 0.0316 µM, first compound 0.316 µM
[38] = second compound 0.0316 µM, first compound 1 µM
[39] = second compound 0.0316 µM, first compound 3.16 µM
[40] = second compound 0.0316 µM, first compound 10 µM
[41] = second compound 0.1 µM, first compound 0.316 µM
[42] = second compound 0.1 µM, first compound 1 µM
[43] = second compound 0.1 µM, first compound 3.16 µM
[44] = second compound 0.1 µM, first compound 10 µM
[45] = second compound 0.316 µM, first compound 0.316 µM
[46] = second compound 0.316 µM, first compound 1 µM
[47] = second compound 0.316 µM, first compound 3.16 µM
[48] = second compound 0.316 µM, first compound 10 µM
[49] = second compound 1 µM, first compound 0.316 µM
[50] = second compound 1 µM, first compound 1 µM
[51] = second compound 1 µM, first compound 3.16 µM
[52] = second compound 1 µM, first compound 10 µM
[53] = second compound 3.16 µM, first compound 0.316 µM
[54] = second compound 3.16 µM, first compound 1 µM
[55] = second compound 3.16 µM, first compound 3.16 µM
[56] = second compound 3.16 µM, first compound 10 µM
[57] = second compound 10 µM, first compound 0.316 µM
[58] = second compound 10 µM, first compound 1 µM
[59] = second compound 10 µM, first compound 3.16 µM
[60] = second compound 10 µM, first compound 10 µM
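Further: spheroids exposed to agents for seven days before readout.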
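Wherever viability, T/C is given: percent viability relative to DMSO vehicle control taken as 100%.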

CC(=O)c1c(C)c2cnc(Nc3ccc(N4CCNCC4)cn3)nc2n(C2CCCC2)c1=O + CC(Nc1ncnc2nc[nH]c12)c1cc2cccc(Cl)c2c(=O)n1-c1ccccc1
< 7.00: pIC50 (second compound 0.0316 µM) | pIC50 (second compound 0.1 µM) | pIC50 (second compound 0.316 µM) | pIC50 (second compound 1 µM) | pIC50 (second compound 3.16 µM) | pIC50 (second compound 10 µM)
inactive: viability, T/C [1] 99% | viability, T/C [2] 83.9% | viability, T/C [3] 93.1% | viability, T/C [4] 99.5% | viability, T/C [5] 101% | viability, T/C [6] 89% | viability, T/C [7] 92.7% | viability, T/C [8] 99.2% | viability, T/C [9] 93.9% | viability, T/C [10] 115% | viability, T/C [11] 101% | viability, T/C [12] 82.6% | viability, T/C [13] 102% | viability, T/C [14] 91.2% | viability, T/C [15] 93% | viability, T/C [16] 92.2% | viability, T/C [17] 86% | viability, T/C [18] 77.2% | viability, T/C [19] 100% | viability, T/C [20] 86.9% | viability, T/C [21] 78.1% | viability, T/C [22] 71.5% | viability, T/C [23] 76.1% | viability, T/C [24] 81.8% | viability, T/C [25] 106% | viability, T/C [26] 105% | viability, T/C [27] 94.2% | viability, T/C [28] 83.8% | viability, T/C [29] 77.2% | viability, T/C [30] 53.4% | viability, T/C [31] 86.3% | viability, T/C [32] 103% | viability, T/C [33] 92.9% | viability, T/C [34] 86.2% | viability, T/C [35] 82.4% | viability, T/C [36] 68.7%

CC(C)n1nc(-c2ccc3oc(N)nc3c2)c2c(N)ncnc21 + CC(Nc1ncnc2nc[nH]c12)c1cc2cccc(Cl)c2c(=O)n1-c1ccccc1
7.09: pIC50 (second compound 0.0316 µM)
7.05: pIC50 (second compound 0.1 µM)
7.08: pIC50 (second compound 1 µM)
7.04: pIC50 (second compound 10 µM)
inactive: viability, T/C [1] 108% | viability, T/C [2] 90.8% | viability, T/C [3] 104% | viability, T/C [4] 79.4% | viability, T/C [5] 73.2% | viability, T/C [6] 44.5% | viability, T/C [7] 96.3% | viability, T/C [8] 85.1% | viability, T/C [9] 97.8% | viability, T/C [10] 79.3% | viability, T/C [11] 84.2% | viability, T/C [12] 45.9% | viability, T/C [13] 93.2% | viability, T/C [14] 82.6% | viability, T/C [15] 83.3% | viability, T/C [16] 95.9% | viability, T/C [17] 75.2% | viability, T/C [18] 81.7% | viability, T/C [19] 88.5% | viability, T/C [20] 82.2% | viability, T/C [21] 104% | viability, T/C [22] 93% | viability, T/C [23] 83.2% | viability, T/C [24] 43.3% | viability, T/C [25] 83.4% | viability, T/C [26] 89.5% | viability, T/C [27] 107% | viability, T/C [28] 67.7% | viability, T/C [29] 74.3% | viability, T/C [30] 64.8% | viability, T/C [31] 82.4% | viability, T/C [32] 96.2% | viability, T/C [33] 88.3% | viability, T/C [34] 79.7% | viability, T/C [35] 78.8% | viability, T/C [36] 47.2%
< 7.00: pIC50 (second compound 0.316 µM) | pIC50 (second compound 3.16 µM)

CC1(C)CCC(CN2CCN(c3ccc(C(=O)NS(=O)(=O)c4ccc(NCC5CCOCC5)c([N+](=O)[O-])c4)c(Oc4cnc5[nH]ccc5c4)c3)CC2)=C(c2ccc(Cl)cc2)C1 + CC(Nc1ncnc2nc[nH]c12)c1cc2cccc(Cl)c2c(=O)n1-c1ccccc1
5.27: pIC50 (second compound 1 µM)
inactive: viability, T/C [5] 87.4% | viability, T/C [6] 101% | viability, T/C [37] 95.4% | viability, T/C [38] 96.6% | viability, T/C [39] 96.2% | viability, T/C [11] 89.9% | viability, T/C [12] 98.7% | viability, T/C [41] 87.5% | viability, T/C [42] 99.6% | viability, T/C [43] 106% | viability, T/C [17] 116% | viability, T/C [18] 92.6% | viability, T/C [45] 89.8% | viability, T/C [46] 95.4% | viability, T/C [47] 96.7% | viability, T/C [23] 96.5% | viability, T/C [24] 83.6% | viability, T/C [49] 103% | viability, T/C [50] 90.3% | viability, T/C [51] 91.2% | viability, T/C [29] 81.8% | viability, T/C [30] 84.7% | viability, T/C [53] 98.8% | viability, T/C [54] 97.1% | viability, T/C [55] 76% | viability, T/C [35] 79.6% | viability, T/C [36] 94% | viability, T/C [57] 86.8% | viability, T/C [58] 94.7% | viability, T/C [59] 93.1%
5.24: pIC50 (second compound 0.0316 µM)
5.32: pIC50 (second compound 3.16 µM)
5.26: pIC50 (second compound 10 µM)
5.25: pIC50 (second compound 0.1 µM) | pIC50 (second compound 0.316 µM)
active: viability, T/C [40] 6.26% | viability, T/C [44] 2.9% | viability, T/C [48] 2.85% | viability, T/C [52] 2.36% | viability, T/C [56] 2.35% | viability, T/C [60] 5.61%

CCCS(=O)(=O)Nc1ccc(F)c(C(=O)c2c[nH]c3ncc(-c4ccc(Cl)cc4)cc23)c1F + CC(Nc1ncnc2nc[nH]c12)c1cc2cccc(Cl)c2c(=O)n1-c1ccccc1
5.34: pIC50 (second compound 1 µM) | pIC50 (second compound 3.16 µM)
5.30: pIC50 (second compound 0.0316 µM)
5.36: pIC50 (second compound 10 µM)
5.29: pIC50 (second compound 0.1 µM)
5.26: pIC50 (second compound 0.316 µM)
active: viability, T/C [40] 3.53% | viability, T/C [44] 5.89% | viability, T/C [48] 3.19% | viability, T/C [52] 5.59% | viability, T/C [56] 2.26% | viability, T/C [60] 3.63%
inactive: viability, T/C [5] 80.7% | viability, T/C [6] 77.9% | viability, T/C [37] 97.8% | viability, T/C [38] 98.2% | viability, T/C [39] 80% | viability, T/C [11] 97.1% | viability, T/C [12] 100% | viability, T/C [41] 90.6% | viability, T/C [42] 97.6% | viability, T/C [43] 82% | viability, T/C [17] 81.3% | viability, T/C [18] 103% | viability, T/C [45] 93.6% | viability, T/C [46] 94.6% | viability, T/C [47] 93.2% | viability, T/C [23] 90.3% | viability, T/C [24] 99.7% | viability, T/C [49] 99.7% | viability, T/C [50] 96.5% | viability, T/C [51] 71.8% | viability, T/C [29] 94.7% | viability, T/C [30] 99.2% | viability, T/C [53] 90.6% | viability, T/C [54] 85.7% | viability, T/C [55] 74.3% | viability, T/C [35] 78.5% | viability, T/C [36] 92.2% | viability, T/C [57] 92.1% | viability, T/C [58] 74.8% | viability, T/C [59] 70.6%

C[C@@H](NC(=O)c1ncnc(N)c1Cl)c1ncc(C(=O)Nc2cc(C(F)(F)F)c(Cl)cn2)s1 + CC(Nc1ncnc2nc[nH]c12)c1cc2cccc(Cl)c2c(=O)n1-c1ccccc1
inactive: viability, T/C [5] 110% | viability, T/C [6] 105% | viability, T/C [37] 109% | viability, T/C [38] 104% | viability, T/C [39] 105% | viability, T/C [40] 78.4% | viability, T/C [11] 97.4% | viability, T/C [12] 105% | viability, T/C [41] 116% | viability, T/C [42] 106% | viability, T/C [43] 110% | viability, T/C [44] 101% | viability, T/C [17] 109% | viability, T/C [18] 120% | viability, T/C [45] 111% | viability, T/C [46] 95.4% | viability, T/C [47] 89.2% | viability, T/C [48] 98.5% | viability, T/C [23] 83.3% | viability, T/C [24] 92.9% | viability, T/C [49] 109% | viability, T/C [50] 116% | viability, T/C [51] 111% | viability, T/C [52] 93.7% | viability, T/C [29] 106% | viability, T/C [30] 101% | viability, T/C [53] 97.7% | viability, T/C [54] 109% | viability, T/C [55] 109% | viability, T/C [56] 95.6% | viability, T/C [35] 87.8% | viability, T/C [36] 90.2% | viability, T/C [57] 101% | viability, T/C [58] 97.7% | viability, T/C [59] 108% | viability, T/C [60] 97%
< 5.00: pIC50 (second compound 0.0316 µM) | pIC50 (second compound 0.1 µM) | pIC50 (second compound 0.316 µM) | pIC50 (second compound 1 µM) | pIC50 (second compound 3.16 µM) | pIC50 (second compound 10 µM)
